Data: ChEMBL document CHEMBL1201862, “PubChem BioAssay data set” (2004)
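96-well plates; 48 h exposure; 5 concentrations. Endpoints by linear interpolation between flanking doses. Not reached: highest tested concentration assigned. The concentration for 50% growth inhibition is given as GI50.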 Active and inactive are the calls of the source. Rule as the data show it: active = GI50 up to about 1.1 µM and inactive = higher.

What was measured:
Test in all cases: NCI tumour cell line growth inhibition, 48 h
[1] = tested on: HT-29
[2] = tested on: SNB-19
[3] = tested on: A498
[4] = tested on: LOX IMVI
[5] = tested on: SK-MEL-28
[6] = tested on: MOLT-4
[7] = tested on: CAKI-1
[8] = tested on: OVCAR-5
[9] = tested on: EKVX
[10] = tested on: TK-10
[11] = tested on: Malme-3M
[12] = tested on: NCI-H226
[13] = tested on: HL-60
[14] = tested on: UO-31
[15] = tested on: OVCAR-3

Measured: GI50

Cc1cccc(C)c1N1C(=O)C(=O)C(c2nc3ccccc3s2)/C(=N/NC(=O)c2ccccc2O)C1=O (stereo not drawn)
inactive: [1] 51.5 µM | [2] 10.7 µM | [3] 28.6 µM | [4] 24.4 µM | [5] 28 µM | [6] 8.89 µM | [7] 3.07 µM | [8] 36.9 µM | [9] 20.6 µM | [10] 25.1 µM | [11] 33 µM | [12] 13.7 µM | [13] 12.5 µM | [14] 4.78 µM | [15] 18.7 µM

O=C1C=CC(=O)C12CCc1ccccc12
inactive: [1] > 95.3 µM | [2] > 100 µM | [3] > 100 µM | [4] > 60.8 µM | [5] > 100 µM | [6] > 44.3 µM | [7] > 31.6 µM | [8] > 100 µM | [9] > 100 µM | [10] > 100 µM | [11] > 100 µM | [12] > 100 µM | [13] 24.2 µM | [14] > 100 µM | [15] > 100 µM

C/C(=N/NS(=O)(=O)c1c(C)cc(C)cc1C)c1cccc[n+]1[O-]
inactive: [1] > 100 µM | [2] > 100 µM | [3] > 100 µM | [5] > 100 µM | [6] > 100 µM | [7] > 100 µM | [8] > 100 µM | [9] > 100 µM | [10] > 100 µM | [13] > 100 µM | [14] > 100 µM | [15] > 100 µM

C[C@]12CCC(=O)C(O)=C1CCC2=O
inactive: [1] > 100 µM | [2] > 100 µM | [3] > 100 µM | [4] > 100 µM | [5] > 100 µM | [6] > 100 µM | [7] > 100 µM | [8] > 100 µM | [9] > 100 µM | [10] > 100 µM | [11] > 100 µM | [12] > 100 µM | [13] > 100 µM | [14] > 100 µM | [15] > 100 µM

CC1CCCC2(O1)OC1CC(=O)OC1C1=C2C(=O)c2ccccc2C1=O (stereo not drawn)
inactive: [1] 2.42 µM | [2] 15.6 µM | [3] 17.7 µM | [4] 2.64 µM | [5] 2.14 µM | [6] 1.58 µM | [7] 2.84 µM | [8] 19.9 µM | [9] 3.87 µM | [10] 9.12 µM | [11] 2.45 µM | [12] 1.3 µM | [13] 1.39 µM | [14] 2.13 µM | [15] 2.72 µM

O=C(O)C12CC3CC(CC(F)(C3)C1)C2
inactive: [1] > 100 µM | [3] > 100 µM | [4] > 100 µM | [5] > 100 µM | [6] > 100 µM | [8] > 100 µM | [9] > 100 µM | [10] > 100 µM | [11] > 100 µM | [13] > 100 µM | [14] > 100 µM | [15] > 100 µM

Clc1cccc(N2CCN(CCCN3CCc4c([nH]c5ccccc45)C3c3cccnc3)CC2)c1 (stereo not drawn)
inactive: [1] 3.89 µM | [2] 20.6 µM | [3] 10.4 µM | [4] 8.17 µM | [5] 3.6 µM | [6] 3.88 µM | [7] 9.68 µM | [8] 7.66 µM | [9] 15.3 µM | [10] > 10 µM | [11] 2.54 µM | [12] 18.1 µM | [13] 2.46 µM | [14] 5.15 µM | [15] 2.67 µM

O=C1C(c2ccccc2)=C(c2ccccc2)C(c2ccccc2)/C1=C1\C(=O)C(c2ccccc2)=C(c2ccccc2)C1c1ccccc1 (stereo not drawn)
inactive: [1] > 100 µM | [3] > 100 µM | [4] > 100 µM | [5] > 100 µM | [6] > 100 µM | [7] > 100 µM | [8] > 100 µM | [9] > 100 µM | [10] > 100 µM | [11] > 100 µM | [12] > 100 µM | [13] > 100 µM | [14] > 100 µM | [15] > 100 µM

CCOC(=O)C1(Br)S(=O)(=O)OCCOS1(=O)=O
inactive: [1] > 100 µM | [2] > 100 µM | [3] > 100 µM | [4] > 100 µM | [5] > 100 µM | [6] > 100 µM | [8] > 100 µM | [9] > 100 µM | [10] > 100 µM | [11] > 100 µM | [12] > 100 µM | [13] > 100 µM | [14] > 100 µM | [15] > 100 µM

Clc1ccc(-c2c(C3=NCCCN3)nnn2-c2ccccc2)cc1
inactive: [1] 40.1 µM | [2] > 100 µM | [3] > 100 µM | [4] 24.9 µM | [5] > 100 µM | [6] > 100 µM | [7] > 100 µM | [8] 67 µM | [9] > 100 µM | [10] > 100 µM | [11] > 100 µM | [12] > 100 µM | [13] 17.6 µM | [14] 71.9 µM | [15] > 100 µM

CCOC(=O)C1=C(Nc2ccc(Cl)cc2Cl)OCC1=O
inactive: [1] > 100 µM | [2] > 100 µM | [4] > 100 µM | [5] > 100 µM | [6] > 100 µM | [7] > 100 µM | [8] > 100 µM | [10] > 100 µM | [11] > 100 µM | [12] > 100 µM | [13] > 100 µM | [14] > 100 µM | [15] > 100 µM

C/N=c1/ss/c(=N\C(SC)=[N+](C)C)n1C.[O-][Cl+3]([O-])([O-])[O-]
inactive: [1] 4.98 µM | [2] > 100 µM | [4] > 100 µM | [5] > 100 µM | [6] 21.1 µM | [7] 54.8 µM | [8] > 100 µM | [9] 80.7 µM | [10] > 100 µM | [12] > 100 µM | [13] 31.3 µM | [14] > 100 µM

C/C=C/C(=O)[C@@H](O)C(C)C
inactive: [1] > 100 µM | [2] > 100 µM | [5] > 100 µM | [6] > 100 µM | [7] > 100 µM | [8] > 100 µM | [9] > 100 µM | [10] > 100 µM | [11] > 100 µM | [12] > 100 µM | [14] > 100 µM | [15] > 100 µM

CC(=O)OCCOCNC(=S)N/N=C/c1ccc([N+](=O)[O-])s1
inactive: [1] 20.7 µM | [2] > 100 µM | [3] 86.7 µM | [4] 33.4 µM | [5] > 100 µM | [6] 28.8 µM | [8] 37.3 µM | [9] 55.5 µM | [10] > 100 µM | [11] 48.4 µM | [12] > 100 µM | [13] 3.81 µM | [14] > 100 µM | [15] 29.3 µM
